Experimental data reported in PMC9504029, “Identification and Characterization of Novel Small-Molecule SMOX Inhibitors” (Medical Sciences, 2022).

How the values were obtained:
LSD1 = biological target: T1, LSD1 (Homo sapiens, UniProt O60341); experiment: LSD1 selectivity assay (Cayman kit, resorufin fluorescence); format: biochemical; settings: read-out: % Inhibition at 20 μM ± SD, LSD1
T1 construct: purchased Cayman Chemical #700120

SH-SY5Y cells = experiment: ROS production following acute excitotoxic stress, CM-H2DCFDA; format: cell-based, human; settings: 8 mM glutamate, 1 h, p < 0.0001
Method: To measure intracellular ROS production following acute excitotoxic stress, a CM-H2DCFDA (Invitrogen) probe was used. The SH-SY5Y cells were incubated in the presence of dichlorodihydrofluorescein diacetate (CM-H2DCFDA, Invitrogen), 20 µM in HBSS, at 37 °C for 30 min. The cells were then pelleted and washed with HBSS buffer (without phenol red, magnesium, or calcium). Phosphate buffer was not used to prevent the formation of polyamine–phosphate complexes. The cells were then resuspended in 96-well plates (Greiner #655086; black walled, cleat flat bottom) at a concentration of 1 × 10^6 cells/mL in HBSS containing 0–100 µM of inhibitor and 8 mM of glutamate. Dichlorodihydrofluorescein (DCF) fluorescence was monitored over 1 h (ex 488 nm, em 530 nm). The increase in fluorescence was reported as the % activity of control wells in the absence of the inhibitor. Fluorescent readout was obtained using a SpectraMax M5 plate reader (Molecular Devices) equipped with SOFTmax PRO 7.0.3 software. All test compounds were assessed for fluorescent activity at 530 nm prior to experimentation. The statistical analysis was conducted in GraphPad Prism 9.3 software (Graph-Pad, San Diego, California) using a one-way ANOVA with multiple comparisons (α = 0.05).

[1] = tested on: SH-SY5Y neuroblastoma cells; experiment: Cell viability following excitotoxic stress (glutamate), MTS assay; format: cell-based, human; settings: 80 mM glutamate
Method: (§1) SH-SY5Y neuroblastoma cells purchased from ATCC (Manassas, VA, USA) were cultured in Dulbecco’s modified Eagle medium (DMEM) without phenol red and supplemented with 10% heat inactivated human AB serum, 4 mM L-glutamine, and 1% penicillin/streptomycin. As the oxidation of spermine by various polyamine oxidases has been documented in cell culture containing ruminant serum, such as in fetal bovine serum (FBS) and horse serum, human AB serum was used to prevent assay interference. The cells were maintained in 5% CO2 humidified atmosphere at 37 °C. Cell media was replaced every 2 days and the cells were discarded after a maximum of 15 passages.
The SH-SY5Y neuroblastoma cells were plated at a density of 1 × 10^6 cells/mL in 96-well plates (Costar #9018; clear flat bottom) and allowed to adhere overnight. Media was aspirated and the cells were then treated with low-serum culture media (containing 5% human AB serum), 80 mM of glutamate, and varying concentrations of compound. The glutamate and test compounds were added simultaneously with no pre-incubation period. Cell viability was measured at 16 h and 24 h post-treatment by a standard MTS assay (0.33 mg/mL incubated at 37 °C for 3 h). Absorbance was read at 490 nm following 3-h incubation with MTS reagent. […]

[2] = tested on: SH-SY5Y neuroblastoma cells; experiment: Cytotoxicity analysis, MTS assay; format: cell-based; settings: doses below 1 mM
Method: as §1
(§2) The SH-SY5Y neuroblastoma cells were plated in 96-well plates at a density of 30,000 cells/well and allowed to reach 80% confluence, followed by treatment with varying concentrations of inhibitor ranging from 0 to 10 mM for 12 h. Cell viability was assessed by standard MTS assay, in which MTS reagent was added to each well at a concentration of 0.33 mg/mL and incubated at 37 °C for 3 h. Viability was monitored and confirmed by a visual inspection of the cells. Absorbance was read at 490 nm and the absorbance values were normalized to background wells containing varying concentrations of inhibitor, cell media, and MTS reagent. Colorimetric readout was obtained using a SpectraMax M5 plate reader (Molecular Devices) equipped with SOFTmax PRO 7.0.3 software.

[3] = Cytotoxicity analysis, MTS assay; format: cell-based; settings: human, SH-SY5Y neuroblastoma cells, MTS, 12 h post treatment, read-out: LC50 (dose corresponding to 50% viability)
Method: as §1, §2

SMOX = biological target: T2, SMOX (Homo sapiens, UniProt Q9NWM0); experiment: SMOX enzyme activity, HRP-luminol chemiluminescence assay; format: biochemical; settings: 2 mM spermine
T2 construct: using 0.3 µg/mL of purified SMOX enzyme and 2 mM of spermine substrate
Method: As the catabolism of spermine by SMOX results in the stoichiometric production of H2O2, enzyme activity was quantified by chemiluminescence generated by the horseradish peroxidase-catalyzed oxidation of luminol in 96-well plates (Costar #3912; white, flat bottom), as previously described. All assays were performed in 0.083 M glycine buffer at a pH of 8 using 0.3 µg/mL of purified SMOX enzyme and 2 mM of spermine substrate. Phosphate buffer was not used to prevent the formation of polyamine–phosphate complexes. Enzyme reactions were initiated by the addition of SMOX and HRP to all other assay components; inhibitors were not pre-incubated with enzyme. Triplicate determinations were obtained for each measurement by recording the luminescence (AUC) over 60 s. Hit compounds were then confirmed by monitoring the assay over 600 s. Each triplicate assay point contained a 4th control well to monitor and normalize the data with regards to luminescent decay over time. The compounds were initially screened for activity at a concentration of 20 µM. […] The known SMOX inhibitor, MDL-72527, was used as a control. The hit compounds were then characterized by IC50 and kinetic analyses. Percent inhibition values are reported as triplicate mean % SMOX inhibition ± SD compared to the vehicle control. IC50 values were calculated in GraphPad Prism 9.3 software (Graph-Pad, San Diego, California) using a non-linear regression analysis ([Inhibitor] vs. normalized response—variable slope). Data for all enzyme assays were generated using a SpectraMax M5 plate reader (Molecular Devices) equipped with SOFTmax PRO 7.0.3 software.

T2 sequence (Q9NWM0 whole entry): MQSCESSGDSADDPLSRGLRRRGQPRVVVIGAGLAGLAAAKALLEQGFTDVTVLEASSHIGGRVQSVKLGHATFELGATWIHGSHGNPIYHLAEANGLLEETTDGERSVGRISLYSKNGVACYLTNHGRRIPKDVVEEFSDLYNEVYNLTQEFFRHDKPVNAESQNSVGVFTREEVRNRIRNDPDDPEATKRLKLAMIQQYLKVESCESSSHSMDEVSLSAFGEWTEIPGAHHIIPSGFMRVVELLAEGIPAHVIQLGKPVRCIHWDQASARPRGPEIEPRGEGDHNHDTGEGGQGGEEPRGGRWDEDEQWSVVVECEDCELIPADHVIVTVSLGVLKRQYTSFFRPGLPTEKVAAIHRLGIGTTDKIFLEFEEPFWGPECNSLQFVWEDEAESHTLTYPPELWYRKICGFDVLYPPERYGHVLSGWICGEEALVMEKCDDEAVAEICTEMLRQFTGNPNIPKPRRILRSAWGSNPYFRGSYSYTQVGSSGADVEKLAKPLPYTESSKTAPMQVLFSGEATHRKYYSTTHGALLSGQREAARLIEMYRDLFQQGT

Cc1cc([C@H](O)CNCCCNC(=N)N)cc(C)c1O [Compound 6]
inhibition at 20 µM (LSD1): -24.2 ± 4.5% | Production of ROS vs vehicle control (SH-SY5Y cells; 10 µM compound): significantly decreased the production of ROS | Production of ROS vs vehicle control (SH-SY5Y cells; 50 µM compound, p = 0.0004 vs 10 µM): significantly decreased the production of ROS | Cell viability vs vehicle control and MDL 72527 ([1]; 24 h, 1 mM compound, p = 0.0001 vs vehicle, p = 0.0003 vs MDL 72527): significantly increased cell viability | viability at 100 µM ([1]; Homo sapiens, SH-SY5Y, 16 h, 100 µM compound, vehicle 26.5%, not statistically significant): 48.3% | Toxicity after 12-h exposure [2]: did not produce significant toxicity | CC50 at 12 h [3]: 5800 µM | inhibition at 20 µM (SMOX; 20 µM compound, no pre-incubation, triplicate, read-out: % Inhibition at 20 μM ± SD, SMOX): 99.7 ± 0.1% | IC50 (SMOX; AUC over 60 s, pH 8): 0.54 µM
